Earlier results, collected in patent US20050196418A1, “Bioavailability and improved delivery of alkaline pharmaceutical drugs” (priority 2004, published 2005).

Conditions: free base; due to air oxidation

chemical stability in a solution or formulation for shelf storage: chemically unstable
SMILES: Clc1ccccc1C(c1ccccc1)(c1ccccc1)n1ccnc1 [Clotrimazole]
